Results published in ChEMBL document CHEMBL2034824, “Pyridyl-2,5-diketopiperazines as potent, selective, and orally bioavailable oxytocin antagonists: synthesis, pharmacokinetics, and in vivo potency” (J Med Chem, 2012).
Values after ≈ are worked out from the molar mass of the structure shown.

How the values were obtained:
[1] = Clearance in dog at 0.6 mg/kg; format: ADME, organism-based, Canis lupus familiaris; parameters: dose 0.6 mg/kg; conditions: in vivo
[2] = AUC in rat at 5 mg/kg, po; format: ADME, organism-based; parameters: dose 5 mg/kg, route oral; conditions: plasma
serum albumin [3] = molecular target: serum albumin (Homo sapiens, UniProt P02768); test: Binding affinity to human serum albumin; format: ADME; conditions: read-out: PB (converted)
serum albumin (Homo sapiens, UniProt P02768), sequence (P02768 whole entry): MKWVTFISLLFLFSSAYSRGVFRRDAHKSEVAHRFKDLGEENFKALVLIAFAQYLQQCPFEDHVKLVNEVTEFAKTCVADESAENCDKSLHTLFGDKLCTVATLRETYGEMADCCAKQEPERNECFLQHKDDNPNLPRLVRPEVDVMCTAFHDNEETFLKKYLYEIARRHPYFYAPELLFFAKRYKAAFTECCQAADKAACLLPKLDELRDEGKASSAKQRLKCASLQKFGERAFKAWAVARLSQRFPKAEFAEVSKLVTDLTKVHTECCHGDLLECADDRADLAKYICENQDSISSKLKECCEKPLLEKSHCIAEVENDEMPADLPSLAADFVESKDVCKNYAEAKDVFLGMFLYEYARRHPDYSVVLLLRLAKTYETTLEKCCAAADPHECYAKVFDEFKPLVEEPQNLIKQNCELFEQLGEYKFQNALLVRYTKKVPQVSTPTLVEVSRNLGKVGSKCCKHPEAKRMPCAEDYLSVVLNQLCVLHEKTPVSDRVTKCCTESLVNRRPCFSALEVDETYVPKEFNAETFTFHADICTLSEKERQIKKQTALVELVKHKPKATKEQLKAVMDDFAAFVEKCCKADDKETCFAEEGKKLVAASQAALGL

[4] = Oral bioavailability in dog at 0.6 mg/kg; format: ADME, organism-based, Canis lupus familiaris; conditions: in vivo
[5] = Aqueous solubility of the compound by HPLC analysis; format: physicochemical
serum albumin [6] = molecular target: serum albumin (Rattus norvegicus, UniProt P02770); test: Binding affinity to rat serum albumin; format: ADME; conditions: read-out: PB (converted)
serum albumin (Rattus norvegicus, UniProt P02770), sequence (P02770 whole entry): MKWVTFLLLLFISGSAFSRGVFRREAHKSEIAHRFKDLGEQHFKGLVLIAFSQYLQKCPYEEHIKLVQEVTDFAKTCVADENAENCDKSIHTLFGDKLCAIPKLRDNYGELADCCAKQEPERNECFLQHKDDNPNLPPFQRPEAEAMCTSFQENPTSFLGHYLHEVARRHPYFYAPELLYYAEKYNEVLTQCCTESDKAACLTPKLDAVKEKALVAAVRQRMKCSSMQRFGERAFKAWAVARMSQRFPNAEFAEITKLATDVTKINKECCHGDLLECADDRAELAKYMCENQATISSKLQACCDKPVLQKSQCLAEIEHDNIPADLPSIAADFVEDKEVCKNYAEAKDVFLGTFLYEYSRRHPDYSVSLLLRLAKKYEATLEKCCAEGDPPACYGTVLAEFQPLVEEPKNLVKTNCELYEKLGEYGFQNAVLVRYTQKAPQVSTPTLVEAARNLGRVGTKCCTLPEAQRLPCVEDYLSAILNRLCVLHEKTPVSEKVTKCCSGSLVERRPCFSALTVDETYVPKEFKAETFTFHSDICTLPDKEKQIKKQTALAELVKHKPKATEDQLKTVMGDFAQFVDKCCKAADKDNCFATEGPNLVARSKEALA

[7] = Oral bioavailability in rat at 5 mg/kg; format: ADME, organism-based; conditions: in vivo
[8] = AUC in dog at 0.6 mg/kg, po; format: ADME, organism-based, Canis lupus familiaris; parameters: dose 0.6 mg/kg, route oral; conditions: plasma
[9] = Clearance in rat at 5 mg/kg; format: ADME, organism-based; parameters: dose 5 mg/kg; conditions: in vivo
[10] = Lipophilicity, log D of the compound by HPLC analysis; format: physicochemical
Oxytocin receptor = molecular target: T1, Oxytocin receptor (Homo sapiens, UniProt P30559); test: Displacement of [3H]oxytocin from human oxytocin receptor
T1 sequence (P30559 whole entry): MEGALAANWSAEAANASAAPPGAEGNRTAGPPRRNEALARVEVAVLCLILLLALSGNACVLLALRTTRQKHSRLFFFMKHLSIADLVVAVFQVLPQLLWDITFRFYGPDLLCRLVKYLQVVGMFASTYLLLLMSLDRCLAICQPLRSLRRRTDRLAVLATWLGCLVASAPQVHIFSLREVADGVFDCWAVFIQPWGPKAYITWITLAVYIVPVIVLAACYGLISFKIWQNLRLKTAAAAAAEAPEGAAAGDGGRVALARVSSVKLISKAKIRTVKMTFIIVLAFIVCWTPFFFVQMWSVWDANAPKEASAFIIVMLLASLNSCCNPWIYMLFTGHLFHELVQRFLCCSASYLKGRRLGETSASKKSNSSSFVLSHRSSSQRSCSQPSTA

Liver microsomes [11] = test: Intrinsic clearance in human liver microsomes; format: ADME, Microsome
Liver microsomes [12] = test: Intrinsic clearance in rat liver microsomes; format: ADME, Microsome
[13] = Intrinsic clearance in cynomolgus monkey liver microsomes; format: ADME, Macaca fascicularis, Microsome
Liver = test: Intrinsic clearance in dog liver microsomes; format: ADME, Canis lupus familiaris, Microsome

Row | SMILES | clearance [1] [mL/min/kg] | AUC [2] [ng·h/mL] | fraction unbound (serum albumin [3]) | bioavailability [4] [%] | solubility [5] [µg/mL] | fraction unbound (serum albumin [6]) | bioavailability [7] [%] | AUC [8] [ng·h/mL] | clearance [9] [mL/min/kg] | logD [10] | Ki (Oxytocin receptor) [pM] | CLH (Liver microsomes [11]) [mL/min/g] | CLH (Liver microsomes [12]) [mL/min/g] | CLH [13] [mL/min/g] | CLH (Liver) [mL/min/g]
1 | COc1ccc([C@H](C(=O)N(C)C)N2C(=O)[C@@H](C3Cc4ccccc4C3)NC(=O)[C@H]2CC(C)C)cn1 | 8 | 2230 | 0.08 | 13 | 216 (≈ 451 µM) | 0.14 | 62 | 158 | 23 | 2.7 | 398 | – | – | – | –
2 | COc1ccc([C@H](C(=O)N2CCOCC2)N2C(=O)[C@@H](C3Cc4ccccc4C3)NC(=O)[C@H]2CC(C)C)cn1 | – | 2130 | 0.24 | – | 249 (≈ 478 µM) | 0.22 | 88 | – | 35 | 2.7 | 251 | – | – | – | –
3 | CC(C)C[C@@H]1C(=O)N[C@H](C2Cc3ccccc3C2)C(=O)N1[C@@H](C(=O)N(C)C)c1ccc(=O)[nH]c1 | – | – | 0.39 | – | > 240 | 0.63 | – | – | – | 1.3 | 3160 | – | – | – | –
4 | CC(C)C[C@@H]1C(=O)N[C@H](C2Cc3ccccc3C2)C(=O)N1[C@@H](C(=O)N(C)C)c1ccc(N(C)C)nc1 | – | 135 | 0.26 | – | 233 (≈ 474 µM) | 0.18 | – | – | – | 2.6 | 251 | – | – | – | –
5 | Cc1ccc([C@H](C(=O)N(C)C)N2C(=O)[C@@H](C3Cc4ccccc4C3)NC(=O)[C@H]2CC2CC2)cn1 | – | – | – | – | 230 (≈ 499 µM) | – | – | – | – | – | 5010 | – | – | – | –
6 | Cc1ccc([C@H](C(=O)N(C)C)N2C(=O)[C@@H](C3Cc4ccccc4C3)NC(=O)[C@H]2CC(C)(C)C)cn1 | – | 618 | – | – | > 242 | – | – | – | – | – | 63.1 | 6 | 3 | 8 | 1
7 | Cc1ccc([C@H](C(=O)N2CCOCC2)N2C(=O)[C@@H](C3Cc4ccccc4C3)NC(=O)[C@H]2CC(C)(C)C)cn1 | 24 | 770 | – | 5 | 213 (≈ 411 µM) | – | 18 | 21 | 20 | – | 79.4 | 4 | 1 | 21 | 9
8 | CC[C@H](C)[C@@H]1C(=O)N[C@H](C2Cc3ccccc3C2)C(=O)N1[C@@H](C(=O)N(C)C)c1ccc(C)nc1 | 10 | 2270 | – | 39 | > 254 | – | 62 | 347 | 19 | – | 200 | 2 | 1 | 9 | 1
9 | CC[C@@H](C)[C@@H]1C(=O)N[C@H](C2Cc3ccccc3C2)C(=O)N1[C@@H](C(=O)N1CCOCC1)c1ccc(C)nc1 | 20 | 1590 | – | 31 | > 280 | – | 44 | 138 | 39 | – | 501 | 4 | 1 | 8 | 2
10 | CC[C@H](C)[C@@H]1C(=O)N[C@H](C2Cc3ccccc3C2)C(=O)N1[C@@H](C(=O)N1CCOCC1)c1ccc(C)nc1 | 23 | 1450 | – | 14 | > 268 | – | 54 | 55 | 27 | – | 158 | 3 | 1 | 6 | 2
11 | CC[C@H](C)[C@@H]1C(=O)N[C@H](C2Cc3ccccc3C2)C(=O)N1[C@@H](C(=O)NC)c1cc(C)cnc1C | – | – | – | – | – | – | – | – | – | – | 1260 | 3 | 1 | 5 | 3
12 | CC[C@H](C)[C@@H]1C(=O)N[C@H](C2Cc3ccccc3C2)C(=O)N1[C@@H](C(=O)NC)c1cnc(C)cc1C | – | 407 | – | – | – | – | 11 | – | 23 | – | 63.1 | 7 | 1 | 20 | 4
13 | CC[C@H](C)[C@@H]1C(=O)N[C@H](C2Cc3ccccc3C2)C(=O)N1[C@@H](C(=O)N(C)C)c1cnc(C)cc1C | 12 | 2680 | – | 17 | – | – | – | 140 | – | – | 39.8 | 9 | 1 | 32 | 1
14 | CC[C@H](C)[C@@H]1C(=O)N[C@H](C2Cc3ccccc3C2)C(=O)N1[C@@H](C(=O)NC)c1ccc(C)nc1C | 22 | 1730 | – | 13 | – | – | 51 | 58 | 25 | – | 398 | 5 | 1 | 6 | 5
15 | CCC(CC)[C@@H]1C(=O)N[C@H](C2Cc3ccccc3C2)C(=O)N1[C@@H](C(=O)N1CCOCC1)c1ccc(C)nc1 | – | 1380 | – | – | – | – | 55 | – | 23 | – | 25.1 | 12 | 1 | 18 | 5
16 | CCC(CC)[C@@H]1C(=O)N[C@H](C2Cc3ccccc3C2)C(=O)N1[C@@H](C(=O)NC)c1ccc(C)nc1C | – | 1240 | – | – | – | – | – | – | – | – | 50.1 | – | 2 | 31 | –

Continued by falling Ki (Oxytocin receptor), values first:

Row | clearance [1] [mL/min/kg] | AUC [2] [ng·h/mL] | fraction unbound (serum albumin [3]) | bioavailability [4] [%] | solubility [5] [µg/mL] | fraction unbound (serum albumin [6]) | bioavailability [7] [%] | AUC [8] [ng·h/mL] | clearance [9] [mL/min/kg] | logD [10] | Ki (Oxytocin receptor) [pM] | CLH (Liver microsomes [11]) [mL/min/g] | CLH (Liver microsomes [12]) [mL/min/g] | CLH [13] [mL/min/g] | CLH (Liver) [mL/min/g] | SMILES
17 | – | – | – | – | > 258 | – | – | – | – | – | 5010 | – | – | – | – | Cc1ccc([C@H](C(=O)N2CCOCC2)N2C(=O)[C@@H](C3Cc4ccccc4C3)NC(=O)[C@H]2CC2CC2)cn1
18 | – | 3360 | – | – | > 237 | – | 82 | – | 23 | – | 1000 | 3 | 1 | 11 | 1 | CC[C@@H](C)[C@@H]1C(=O)N[C@H](C2Cc3ccccc3C2)C(=O)N1[C@@H](C(=O)N(C)C)c1ccc(C)nc1
19 | 14 | 24 | – | 11 | > 242 | – | < 1 | 73 | 28 | – | 1000 | 1 | 1 | 1 | – | CC[C@H](C)[C@@H]1C(=O)N[C@H](C2Cc3ccccc3C2)C(=O)N1[C@@H](C(=O)N(C)C)c1ccc(C)[n+]([O-])c1
20 | – | 1370 | – | – | – | – | – | – | – | – | 794 | 5 | 1 | 13 | 2 | CC[C@H](C)[C@@H]1C(=O)N[C@H](C2Cc3ccccc3C2)C(=O)N1[C@@H](C(=O)N(C)C)c1cc(C)cnc1C
21 | – | – | – | – | – | – | – | – | – | – | 794 | – | – | – | – | CC[C@H](C)[C@@H]1C(=O)N[C@H](C2Cc3ccccc3C2)C(=O)N1[C@@H](C(=O)N1CCOCC1)c1cc(C)cnc1C
22 | – | 920 | 0.24 | – | 241 (≈ 493 µM) | 0.3 | 36 | – | 33 | 2.3 | 501 | – | – | – | – | Cc1ccc([C@H](C(=O)N2CCCC2)N2C(=O)[C@@H](C3Cc4ccccc4C3)NC(=O)[C@H]2CC(C)C)cn1
23 | 17 | 811 | 0.33 | 10 | > 253 | 0.38 | – | 53 | – | 2.1 | 398 | – | – | – | – | Cc1ccc([C@H](C(=O)N2CCOCC2)N2C(=O)[C@@H](C3Cc4ccccc4C3)NC(=O)[C@H]2CC(C)C)cn1
24 | – | 80 | 0.3 | – | 235 (≈ 440 µM) | 0.29 | – | – | – | 2.9 | 316 | – | – | – | – | CC(C)C[C@@H]1C(=O)N[C@H](C2Cc3ccccc3C2)C(=O)N1[C@@H](C(=O)N1CCOCC1)c1ccc(N(C)C)nc1
25 | – | 1110 | – | – | – | – | – | – | – | – | 50.1 | 1 | 1 | 16 | 4 | CC[C@H](C)[C@@H]1C(=O)N[C@H](C2Cc3ccccc3C2)C(=O)N1[C@@H](C(=O)N1CCOCC1)c1cnc(C)cc1C
26 | 19 | 1810 | – | 47 | – | – | 36 | 255 | 20 | – | 50.1 | 11 | 2 | 12 | 1 | CCC(CC)[C@@H]1C(=O)N[C@H](C2Cc3ccccc3C2)C(=O)N1[C@@H](C(=O)N(C)C)c1ccc(C)nc1
27 | – | – | – | – | – | – | – | – | – | – | 31.6 | 18 | 3 | 29 | 1 | CCC(CC)[C@@H]1C(=O)N[C@H](C2Cc3ccccc3C2)C(=O)N1[C@@H](C(=O)N(C)C)c1ccc(C)nc1C
